Residue numbers refer to the chain shown, from its start.
What was measured:
HilD^N44A = molecular target: T1, HilD^N44A (Salmonella typhimurium, UniProt P0CL08, N44A); assay: ELISA binding of fatty acid to HilD N44A
T1 construct: made in house; host or cells: E. coli BL21 (DE3)
T1 sequence (P0CL08 1-309 N44A): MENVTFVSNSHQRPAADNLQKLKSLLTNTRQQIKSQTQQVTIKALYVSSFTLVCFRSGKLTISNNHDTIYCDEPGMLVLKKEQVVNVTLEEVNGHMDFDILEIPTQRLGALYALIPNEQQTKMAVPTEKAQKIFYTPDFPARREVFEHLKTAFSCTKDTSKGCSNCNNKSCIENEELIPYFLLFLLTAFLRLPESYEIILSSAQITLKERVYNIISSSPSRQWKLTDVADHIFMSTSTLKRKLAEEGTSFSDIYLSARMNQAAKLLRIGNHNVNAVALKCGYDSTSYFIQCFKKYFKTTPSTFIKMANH
Protocol: (§1) hilD or its mutated sequences were amplified and cloned into pET15b(+) under an N-terminal 6xHis tag. The constructs were transformed into E. coli BL21 (DE3) for expression. Transformants were induced with 5 mM IPTG for 4 hours. Cultures were centrifuged, lysed and treated with TALON beads as described above. Bound protein was eluted by applying 1 ml elution buffer to the columns. Elution was confirmed by SDS-PAGE. Following confirmation, eluted samples were dialyzed overnight in dialysis buffer (50 mM sodium phosphate, 300 mM NaCl, 10% glycerol). Protein concentration and quality were assessed by Bradford estimation and SDS-PAGE.
(§2) 96-well polystyrene plates were coated with 10 μM fatty acid in coating buffer (0.05 M sodium carbonate-bicarbonate, pH 9.3) and incubated overnight at 4°C. Wells were washed three times with PBS, followed by addition of blocking buffer (1% Ficoll 400 in PBS). After blocking, wells were washed three times with PBS, and different concentrations of proteins in blocking buffer were added and incubated at room temperature for 2 hours. […] After color development, reaction was stopped with 1N sulfuric acid and read spectrophotometrically at 490 nm. Binding was analyzed in GraphPad Prism.
(§3) All experiments were repeated twice and data of representative experiment have been shown. Kd was calculated by using Total One-Site binding in GraphPad Prism. […]

[1] = system: Salmonella invasion of HEp-2 cells; assay: Invasion of HEp-2 cells by gentamicin protection assay; assay type: cell-based
Protocol: Invasion was quantified by gentamicin protection assay. HEp-2 cells were seeded into 24-well cell culture plates (~10^5/well) and allowed to attach overnight at 37° C with 5% CO2). Salmonella strains were grown overnight without aeration in LB buffered with 100 mM HEPES, pH 8.0, with antibiotics and fatty acids or control solvent. Overnight cultures were washed with sterile PBS. Bacteria were added to the HEp-2 cell monolayer (MOI 1:10), centrifuged briefly (10 minutes at 200 x g) and incubated for 1 hour at 37°C. Wells were washed three times with sterile PBS followed by addition of media with 200 μg/mL gentamicin and incubated for 1 hour. Cells were then washed three times with sterile PBS and lysed by 0.1% Triton X-100. Intracellular bacteria were enumerated by spreading lysates onto LB agar plates with appropriate selection.

HilD^K293A [2] = molecular target: T2, HilD^K293A (Salmonella typhimurium, UniProt P0CL08, K293A); assay: ELISA binding of fatty acid to HilD K293A
T2 construct: made in house; host or cells: E. coli BL21 (DE3)
T2 sequence (P0CL08 1-309 K293A): T1 sequence (P0CL08 1-309 N44A) with A44N, K293A
Protocol: as §1, §2, §3

HilD^K293A [3] = molecular target: T2, HilD^K293A; assay: EMSA of hilA promoter DNA with HilD K293A; assay type: biochemical; conditions: 10 nM hilA promoter DNA, 30 μM fatty acid
Protocol: (§4) These were performed as previously described. Briefly, 10 nM hilA promoter DNA (-286 to +31) was mixed with 150 nM HilD in a binding buffer (100 mM Tris pH 7.5, 10 mM EDTA, 1M KCl, 1 mM DTT, 50% v/v glycerol). Fatty acids or control solvents were added at various concentrations. Binding reaction was performed at room temperature for 1 hour. Dye solution was added to final concentration of 1X and samples were separated on 10% acrylamide gels. DNA was stained using SYBR Safe and visualized in BioRad GelDoc imaging system.

wild type HilD [4] = molecular target: T3, wild type HilD (Salmonella typhimurium, UniProt P0CL08); assay: ELISA binding of fatty acid to wild type HilD; conditions: plates pre-adsorbed with 10 μM fatty acid, non-linear regression
T3 construct: made in house; host or cells: E. coli BL21 (DE3)
T3 sequence (P0CL08 1-309): T1 sequence (P0CL08 1-309 N44A) with A44N
Protocol: as §1, §2, §3

HilD^Q290A = molecular target: T4, HilD^Q290A (Salmonella typhimurium, UniProt P0CL08, Q290A); assay: ELISA binding of fatty acid to HilD Q290A
T4 construct: made in house; host or cells: E. coli BL21 (DE3)
T4 sequence (P0CL08 1-309 Q290A): T1 sequence (P0CL08 1-309 N44A) with A44N, Q290A
Protocol: as §1, §2, §3

wild type HilD [5] = molecular target: T3, wild type HilD; assay: EMSA of hilA promoter DNA with wild type HilD; assay type: biochemical; conditions: wild type HilD 150 nM; 10 nM hilA promoter DNA; increasing concentrations or 30 μM fatty acid
Protocol: as §4

[6] = Salmonella expressing HilD K293A grown overnight with 20 μM fatty acid
[7] = Salmonella expressing HilD N44A grown overnight with 20 μM fatty acid
[8] = Salmonella expressing wild type HilD grown overnight with 20 μM fatty acid
[9] = plates pre-adsorbed with 10 μM fatty acid

Compound	binding in ELISA (in words) (HilD^N44A)	inhibition of invasion of HEp-2 cells [1, 6]	inhibition of invasion of HEp-2 cells [1, 7]	inhibition of invasion of HEp-2 cells [1, 8] [fold]	binding in ELISA (in words) (HilD^K293A [2])	effect on HilD binding to hilA promoter DNA (HilD^K293A [3])	Kd (wild type HilD [4]) [µM]	Kd (HilD^Q290A; [9]) [µM]	effect on HilD binding to hilA promoter DNA (wild type HilD [5])	inhibition of invasion of HEp-2 cells ([1]; Salmonella expressing HilD Q290A grown overnight with 20 μM fatty acid)	Kd (HilD^K293A [2]; [9]) [µM]	binding in ELISA (in words) (HilD^Q290A)
CCCCCCCCCCCCC/C=C\C(=O)O [c2-HDA, cis-2-hexadecenoic acid]	essentially no binding	invaded HEp-2 cells despite the presence of 20 μM c2-HDA	unaffected	8	negligible binding	remained bound to the hilA promoter	3.5	9.7	progressively impaired interaction of wild type HilD with the DNA target	–	–	–
CCCCCCCCCCCCC/C=C/C(=O)O [t2-HDA, trans-2-hexadecenoic acid]	essentially no binding	2 fold	unaffected	2	–	efficiently reduced the DNA binding capacity	9.8	–	efficiently reduced the DNA binding capacity	had no effect	16.7	failed to bind
